Test results from US5034212A, “Method of imaging using a radioactive glucosamine derivative” (Nihon Medi-Physics Co., Ltd., priority 1989, dated 1991).
One block for each compound: values may come before it.

How the values were obtained:
brain = experiment: Behavior in mouse: TLC of brain and blood homogenates after tail vein injection; type: in vivo, ddY strain male mice
Method: ^125 I-ABGA was injected into ddY strain male mice at the tail vein, and after a certain period of time, the mice were sacrificed. The blood was collected from the heart, and the brain was taken out. The blood and the brain were respectively admixed with 5% trichloroacetic acid (1 ml), homogenized and centrifuged at 3,000 rpm and at 0° C. for 10 minutes. The supernatant was analyzed by thin layer chromatography using a mixture of chloroform and methanol (7:3 by volume) as a developing solvent. The results are shown in FIGS. 1A and 1B of the accompanying drawings. In FIGS. 1A and 1B showing respectively the analytical results on the brain homogenate and the blood homogenate, the solid line, the dotted line and the solid-dot mixed line represent respectively the ones of 5 minutes, 60 minutes and 180 minutes after the administration.

[1] = Body distribution of ^125 I-ABGA in mouse; type: in vivo, ddY strain male mice; settings: i.v.
[2] = Body distribution of BGA in mouse; type: in vivo
hexokinase = experiment: Phosphorylation with hexokinase / inhibition of glucose phosphorylation; type: biochemical
[3] = Stability in buffer of pH 5, 7 or 9 at 37° C., TLC analysis; type: physicochemical
Method: A solution of ^125 I-ABGA in dimethylsulfoxide was added to a buffer of pH 5, 7 or 9 and incubated at 37° C. for a certain period of time.

Swine liver esterase = experiment: Enzymatic deesterification with swine liver esterase, TLC analysis; type: in vitro ADME; settings: pH 7.4, 37° C.; for Proportion of peak component ABGA / Proportion of peak component BGA / Proportion of peak component I^- / Proportion of peak component Others: esterase 100 U
Method: Swine liver esterase (100 U) was added to phosphate buffer (pH 7.4), and ^125 I-ABGA (50 kBq) was added thereto, followed by incubation at 37° C. for a certain period of time. The reaction mixture was sampled, and ethanol was added thereto, followed by centrifugation.

[4] = Octanol/phosphate buffer distribution ratio (lipophilic property); type: physicochemical
Method: To a mixture of octanol (3 ml) and phosphate buffer (PBS) (3 ml), ^125 I-ABGA as obtained in Example 2 was added, followed by stirring and allowing to stand. The radioactivity of each layer was measured, and the distribution ratio was determined. The results are shown in Table 1, from which it is understood that ^125 I-ABGA is lypophilic.

TLC peak of ABGA over time (brain; mouse brain, 5 to 180 minutes): decreases with the lapse of time | Clearance from the blood [1]: rapid clearance from the blood | Retention in the brain [1]: retention in the brain | Uptake in the brain in comparison with BGA [1]: higher uptake in the brain
SMILES: CC(=O)OC[C@H]1OC(OC(C)=O)[C@H](NC(=O)c2cccc(I)c2)[C@@H](OC(C)=O)[C@@H]1OC(C)=O (stereo partly drawn) [ABGA, N-(m-iodobenzoyl)-1,3,4,6-tetra-O-acetyl-D-glucosamine]
TLC peaks in brain (brain; mouse brain, 5 minutes after i.v. administration): the peaks of ABGA and BGA appear in brain 5 minutes after the administration | Transfer to brain and deesterification (brain; mouse, i.v.): transferred to brain at the initial stage of administration and thereafter deesterified, whereby it behaves as BGA | Brain/blood ratio with lapse of time [1]: increase of the brain/blood ratio with the lapse of time

Disappearance of radioactivity from brain ([2]; mouse): parallel to the blood clearance | Phosphorylation with hexokinase (hexokinase): not phosphorylated with hexokinase
SMILES: O=C(N[C@H]1C(O)O[C@H](CO)[C@@H](O)[C@@H]1O)c1cccc(I)c1 (stereo partly drawn) [BGA, N-m-iodobenzoyl-D-glucosamine]
Passage through the blood-brain barrier ([2]; in vivo): can hardly pass through the blood-brain barrier (BBB) in vivo | Stomach accumulation as index of deiodization / stability in body ([2]; mouse): low in stomach accumulation as the index of deiodization and thus stable in a body | Inhibition to the ATP action (hexokinase): antagonistic inhibition to the ATP action | Inhibition to the phosphorylation of glucose (hexokinase): non-antagonistic inhibition to the phosphorylation of glucose

SMILES: CC(=O)OC[C@H]1OC(OC(C)=O)[C@H](NC(=O)c2cccc([125I])c2)[C@@H](OC(C)=O)[C@@H]1OC(C)=O (stereo partly drawn) [^125 I-ABGA, ^125 I-labeled N-(m-iodobenzoyl)-1,3,4,6-tetra-O-acetyl-D-glucosamine]
Body distribution, Blood ([1]; 2 min): 5.16 ± 0.97 % dose/g organ | Body distribution, Brain ([1]; 2 min): 0.53 ± 0.14 % dose/g organ | Body distribution, Heart ([1]; 2 min): 4.88 ± 0.97 % dose/g organ | Body distribution, Intestine ([1]; 2 min): 3.94 ± 1.19 % dose/g organ | Body distribution, Kidney ([1]; 2 min): 14.87 ± 2.31 % dose/g organ | Body distribution, Liver ([1]; 2 min): 15.32 ± 4.43 % dose/g organ | Body distribution, Pancreas ([1]; 2 min): 4.54 ± 1.03 % dose/g organ | Body distribution, Stomach ([1]; 2 min): 1.87 ± 0.68 % dose/g organ | Body distribution, Blood ([1]; 5 min): 7.16 ± 0.13 % dose/g organ | Body distribution, Brain ([1]; 5 min): 0.55 ± 0.11 % dose/g organ | Body distribution, Heart ([1]; 5 min): 4.45 ± 0.52 % dose/g organ | Body distribution, Intestine ([1]; 5 min): 4.58 ± 0.60 % dose/g organ | Body distribution, Kidney ([1]; 5 min): 11.39 ± 3.08 % dose/g organ | Body distribution, Liver ([1]; 5 min): 12.85 ± 1.71 % dose/g organ | Body distribution, Pancreas ([1]; 5 min): 4.40 ± 0.28 % dose/g organ | Body distribution, Stomach ([1]; 5 min): 0.59 ± 0.23 % dose/g organ | Body distribution, Blood ([1]; 15 min): 6.64 ± 0.31 % dose/g organ | Body distribution, Brain ([1]; 15 min): 0.47 ± 0.06 % dose/g organ | Body distribution, Heart ([1]; 15 min): 3.35 ± 0.27 % dose/g organ | Body distribution, Intestine ([1]; 15 min): 5.89 ± 0.47 % dose/g organ | Body distribution, Kidney ([1]; 15 min): 7.00 ± 0.49 % dose/g organ | Body distribution, Liver ([1]; 15 min): 7.66 ± 0.86 % dose/g organ | Body distribution, Pancreas ([1]; 15 min): 3.16 ± 0.30 % dose/g organ | Body distribution, Stomach ([1]; 15 min): 1.88 ± 0.52 % dose/g organ | Body distribution, Blood ([1]; 30 min): 4.16 ± 2.42 % dose/g organ | Body distribution, Brain ([1]; 30 min): 0.43 ± 0.02 % dose/g organ | Body distribution, Heart ([1]; 30 min): 2.69 ± 0.20 % dose/g organ | Body distribution, Intestine ([1]; 30 min): 6.26 ± 0.96 % dose/g organ | Body distribution, Kidney ([1]; 30 min): 6.37 ± 3.04 % dose/g organ | Body distribution, Liver ([1]; 30 min): 5.82 ± 0.64 % dose/g organ | Body distribution, Pancreas ([1]; 30 min): 2.59 ± 0.13 % dose/g organ | Body distribution, Stomach ([1]; 30 min): 1.86 ± 0.13 % dose/g organ | Body distribution, Blood ([1]; 60 min): 3.67 ± 0.40 % dose/g organ | Body distribution, Brain ([1]; 60 min): 0.33 ± 0.05 % dose/g organ | Body distribution, Heart ([1]; 60 min): 1.87 ± 0.37 % dose/g organ | Body distribution, Intestine ([1]; 60 min): 6.88 ± 0.53 % dose/g organ | Body distribution, Kidney ([1]; 60 min): 3.81 ± 0.75 % dose/g organ | Body distribution, Liver ([1]; 60 min): 4.94 ± 0.90 % dose/g organ | Body distribution, Pancreas ([1]; 60 min): 2.10 ± 0.34 % dose/g organ | Body distribution, Stomach ([1]; 60 min): 1.74 ± 0.83 % dose/g organ | Body distribution, Blood ([1]; 180 min): 0.91 ± 0.55 % dose/g organ | Body distribution, Brain ([1]; 180 min): 0.19 ± 0.08 % dose/g organ | Body distribution, Heart ([1]; 180 min): 0.75 ± 0.34 % dose/g organ | Body distribution, Intestine ([1]; 180 min): 4.60 ± 2.84 % dose/g organ | Body distribution, Kidney ([1]; 180 min): 1.08 ± 0.67 % dose/g organ | Body distribution, Liver ([1]; 180 min): 2.25 ± 1.44 % dose/g organ | Body distribution, Pancreas ([1]; 180 min): 0.76 ± 0.35 % dose/g organ | Body distribution, Stomach ([1]; 180 min): 1.27 ± 0.80 % dose/g organ | Stability: peak component ABGA ([3]; 15 min, pH 5, 37° C.): 99.1 | Stability: peak component I^- ([3]; 15 min, pH 5, 37° C.): 0 | Stability: peak component Others ([3]; 15 min, pH 5, 37° C.): 0 | Stability: peak component ABGA ([3]; 15 min, pH 7, 37° C.): 99.9 | Stability: peak component I^- ([3]; 15 min, pH 7, 37° C.): 0 | Stability: peak component Others ([3]; 15 min, pH 7, 37° C.): 0 | Stability: peak component ABGA ([3]; 15 min, pH 9, 37° C.): 53.9 | Stability: peak component I^- ([3]; 15 min, pH 9, 37° C.): 10.2 | Stability: peak component Others ([3]; 15 min, pH 9, 37° C.): 31.5 | Stability: peak component ABGA ([3]; 60 min, pH 5, 37° C.): 98.5 | Stability: peak component I^- ([3]; 60 min, pH 5, 37° C.): 0 | Stability: peak component Others ([3]; 60 min, pH 5, 37° C.): 0 | Stability: peak component ABGA ([3]; 60 min, pH 7, 37° C.): 99.3 | Stability: peak component I^- ([3]; 60 min, pH 7, 37° C.): 0 | Stability: peak component Others ([3]; 60 min, pH 7, 37° C.): 0 | Stability: peak component ABGA ([3]; 60 min, pH 9, 37° C.): 25.5 | Stability: peak component I^- ([3]; 60 min, pH 9, 37° C.): 19.6 | Stability: peak component Others ([3]; 60 min, pH 9, 37° C.): 49.0 | Stability: peak component ABGA ([3]; 180 min, pH 5, 37° C.): 98.4 | Stability: peak component I^- ([3]; 180 min, pH 5, 37° C.): 0 | Stability: peak component Others ([3]; 180 min, pH 5, 37° C.): 0 | Stability: peak component ABGA ([3]; 180 min, pH 7, 37° C.): 97.8 | Stability: peak component I^- ([3]; 180 min, pH 7, 37° C.): 0.9 | Stability: peak component Others ([3]; 180 min, pH 7, 37° C.): 0 | Stability: peak component ABGA ([3]; 180 min, pH 9, 37° C.): 2.2 | Stability: peak component I^- ([3]; 180 min, pH 9, 37° C.): 31.1 | Stability: peak component Others ([3]; 180 min, pH 9, 37° C.): 57.5 | Stability at high pH ([3]; high pH (pH 9), 37° C.): hydrolyzed to BGA with deiodization at high pH | Stability at other pH ([3]; pH 5 and 7, 37° C., up to 3 hours): stable (i.e. neither hydrolyzed nor deiodized) even after 3 hours at other pH | Proportion of peak component ABGA (Swine liver esterase; 10 min): 0 | Proportion of peak component BGA (Swine liver esterase; 10 min): 87.3 ± 3.1 | Proportion of peak component I^- (Swine liver esterase; 10 min): 0.9 ± 0.5 | Proportion of peak component Others (Swine liver esterase; 10 min): 10.6 ± 2.9 | Proportion of peak component ABGA (Swine liver esterase; 60 min): 0 | Proportion of peak component BGA (Swine liver esterase; 60 min): 54.5 ± 3.7 | Proportion of peak component I^- (Swine liver esterase; 60 min): 6.5 ± 0.5 | Proportion of peak component Others (Swine liver esterase; 60 min): 33.7 ± 2.4 | Proportion of peak component ABGA (Swine liver esterase; 180 min): 0 | Proportion of peak component BGA (Swine liver esterase; 180 min): 7.2 ± 2.2 | Proportion of peak component I^- (Swine liver esterase; 180 min): 33.4 ± 1.6 | Proportion of peak component Others (Swine liver esterase; 180 min): 42.9 ± 0.4 | Enzymatic deesterification (Swine liver esterase; swine liver esterase): deesterified in a very short time to give N-m-iodobenzoyl-D-glucosamine (BGA) | Lipophilic property ([4]; octanol/PBS): lypophilic | Distribution ratio in PBS and octanol ([4]; pH 7.0): 189.0 | Distribution ratio in PBS and octanol ([4]; pH 7.4): 193.8 | Distribution ratio in PBS and octanol ([4]; pH 8.10): 206.5
